Results published in patent US7186565B2, “Sampling and toxicity monitoring device and method” (priority 2001, dated 2007).
Read-outs that look alike come from different tables or passages of the source.

What was measured:
[1] = system: 7-ethoxyresorufin-o-deethylase (EROD) activity in a rainbow trout liver cell line (RTL-W1); experiment: Induction of EROD activity in RTL-W1 cells; type: cell-based; settings: Oncorhynchus mykiss
Protocol: For toxicity tests, reporter cells or molecules are preferably added to chambers in an appropriate culture medium. An appropriate liquid culture medium is one that will maintain reporter cell vitality (or reporter molecule integrity) and support expression of a chosen endpoint in the toxicological test. For example for the experiment depicted in FIG. 8, liver cells from rainbow trout (RTL-W1 cells) were added in Leibovitz' L-15 medium that contained 5% fetal bovine serum as a supplement (Bols et al., 1999). The reporters are left to desorb or interact with the chemicals at the sampler surface for a predetermined time. […] After a predetermined exposure time, the reporter cells are evaluated for the expression of toxicity. […] Other examples of toxicological endpoints would be the disruption of metabolic activity or the loss of cell membrane integrity in cultured cells, which can be measured using the fluorescent indicator dyes alamar Blue and CFDA-AM (Schirmer et al., 2000a/b), or the modulation of light emission in luminescent bacteria (Bitton and Koopman, 1992). Although not essential to the method, the arrangement of chambers in a multiwell plate format and the use of fluorescent indicator dyes or light emission is advantageous because of recent developments in automated fluorescence/luminescence multiwell plate readers. Plates with […] can be analyzed in seconds. […]

[2] = Protocol: For these experiments fluoranthene was dissolved in the aqueous medium, L-15/ex, to yield 297 nM (60 ng/ml) of fluoranthene. The fluoranthene solution was added once to empty wells of tissue culture plates, and 10 min, 2, 4, and 24 h later, the medium was removed and culture wells extracted with methanol in order to solubilize fluoranthene that had adsorbed to the culture surface. The concentration of fluoranthene in the methanol extracts was subsequently determined by high performance liquid chromatography (HPLC) and expressed as a percentage of the initial concentration, 297 nM.

## c1ccc2cc3c(cc2c1)-c1cccc2cccc-3c12 [BkF, benzo[k]fluoranthene]
[1]; BkF added in dissolved form to wells after cell attachment (conventional method), RTL-W1 cells, read-out: EC50 of EROD induction, dissolved BkF
  EC50: 8.6 nM
[1]; BkF adsorbed to polystyrene culture wells prior to cell attachment, RTL-W1 cells attached 24 h before EROD measurement, read-out: EC50 of EROD induction, sorbed BkF
  EC50: 10.4 nM

## c1ccc2c(c1)-c1cccc3cccc-2c13 [fluoranthene]
[2]; 297 nM in L-15/ex, 10 min, 2, 4, 24 h
  binding of fluoranthene by polystyrene of tissue culture plates: high affinity
[2]; single dose 297 nM (60 ng/ml) in L-15/ex in empty wells, methanol extract, HPLC
  time of exposure until sorption equilibrium is reached: less than 24 h
